Patent publication US20220079944A1, “2H-INDAZOLE DERIVATIVES AS THERAPEUTIC AGENTS FOR BRAIN CANCERS AND BRAIN METASTASES” (BETA PHARMA, INC., priority 2019, published 2022)
Where two headings read alike, the source gives them in different places. Each block holds one compound with its values, some of them ahead of it.

Legend:
MDR1 (P-gp) = assay: in vitro; conditions: dog, MDCK-MDR1
Description: MDR1-MDCK cell monolayers were grown to confluence on collagen-coated, microporous membranes in 12-well assay plates. […] The permeability assay buffer was Hanks' balanced salt solution (HBSS) containing 10 mM HEPES and 15 mM glucose at a pH of 7.4. The buffer in the receiver chamber also contained 1% bovine serum albumin. The dosing solution concentration was 5 μM of test article in the assay buffer+/−1 μM valspodar. Cells were first pre-incubated for 30 minutes with HBSS containing +/−1 μM valspodar. Cell monolayers were dosed on the apical side (A-to-B) or basolateral side (B-to-A) and incubated at 37° C. with 5% CO2 in a humidified incubator. Samples were taken from the donor and receiver chambers at 120 minutes. Each determination was performed in duplicate. The flux of lucifer yellow was also measured post-experimentally for each monolayer to ensure no damage was inflicted to the cell monolayers during the flux period. All samples were assayed by LC-MS/MS using electrospray ionization.

[1] = Brain concentration and brain/plasma ratio in mouse after 10 mg/kg p.o.; type: in vivo; conditions: PO 10 mg/kg
p-glycoprotein (P-gp) = p-glycoprotein (P-gp) (Homo sapiens, UniProt P08183); conditions: background statement; cited from earlier work
Chain of p-glycoprotein (P-gp) (P08183 whole entry): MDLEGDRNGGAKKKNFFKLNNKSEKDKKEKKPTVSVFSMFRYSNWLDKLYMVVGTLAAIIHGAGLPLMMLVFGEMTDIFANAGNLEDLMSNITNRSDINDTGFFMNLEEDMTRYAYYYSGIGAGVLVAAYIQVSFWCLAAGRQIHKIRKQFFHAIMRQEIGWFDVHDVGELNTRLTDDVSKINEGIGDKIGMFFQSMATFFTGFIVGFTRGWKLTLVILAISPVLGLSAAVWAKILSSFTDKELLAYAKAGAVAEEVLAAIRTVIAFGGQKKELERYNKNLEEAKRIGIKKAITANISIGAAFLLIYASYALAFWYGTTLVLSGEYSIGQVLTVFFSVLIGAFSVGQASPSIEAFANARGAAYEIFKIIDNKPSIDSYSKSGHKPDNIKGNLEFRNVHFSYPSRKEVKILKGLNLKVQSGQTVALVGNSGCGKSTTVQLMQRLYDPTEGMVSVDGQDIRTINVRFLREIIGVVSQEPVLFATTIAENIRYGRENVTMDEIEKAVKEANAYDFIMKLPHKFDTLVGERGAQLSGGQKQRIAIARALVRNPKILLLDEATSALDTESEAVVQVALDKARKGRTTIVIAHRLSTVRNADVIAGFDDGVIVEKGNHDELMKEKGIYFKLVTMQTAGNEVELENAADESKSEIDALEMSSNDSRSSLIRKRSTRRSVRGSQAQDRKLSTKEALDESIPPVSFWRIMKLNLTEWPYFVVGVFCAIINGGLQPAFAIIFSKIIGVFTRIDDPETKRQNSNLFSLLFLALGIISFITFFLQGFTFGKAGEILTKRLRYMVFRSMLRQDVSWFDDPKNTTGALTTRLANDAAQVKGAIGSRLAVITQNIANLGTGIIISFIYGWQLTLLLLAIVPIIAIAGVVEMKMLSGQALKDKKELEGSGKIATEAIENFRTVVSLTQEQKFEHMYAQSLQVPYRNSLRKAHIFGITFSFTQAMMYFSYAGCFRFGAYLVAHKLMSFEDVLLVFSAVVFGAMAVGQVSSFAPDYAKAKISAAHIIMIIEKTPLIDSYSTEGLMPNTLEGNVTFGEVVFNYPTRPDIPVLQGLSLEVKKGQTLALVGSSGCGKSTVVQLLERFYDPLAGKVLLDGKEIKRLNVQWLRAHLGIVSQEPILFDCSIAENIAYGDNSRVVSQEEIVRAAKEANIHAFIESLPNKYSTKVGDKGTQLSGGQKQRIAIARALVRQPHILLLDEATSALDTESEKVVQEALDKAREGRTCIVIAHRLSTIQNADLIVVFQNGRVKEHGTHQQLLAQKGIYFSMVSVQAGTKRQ

[2] = brain, po, 10 mg/kg, individual animal R1, read-out: Brain Concentration, R1 + 3n
[3] = brain, po, 10 mg/kg, individual animal R2, read-out: Brain Concentration, R2 + 3n
[4] = brain, po, 10 mg/kg, individual animal R3, read-out: Brain Concentration, R3 + 3n
[5] = brain, po, 10 mg/kg, mean, read-out: Brain Concentration, Mean PO
[6] = plasma, po, 10 mg/kg, individual animal R1, read-out: Plasma Concentration, R1 + 3n
[7] = plasma, po, 10 mg/kg, individual animal R2, read-out: Plasma Concentration, R2 + 3n
[8] = plasma, po, 10 mg/kg, individual animal R3, read-out: Plasma Concentration, R3 + 3n
[9] = plasma, po, 10 mg/kg, mean, read-out: Plasma Concentration, Mean PO

Papp A→B (MDR1 (P-gp)): 0.05 ×10⁻⁶ cm/s | Papp B→A (MDR1 (P-gp)): 13.9 ×10⁻⁶ cm/s | efflux ratio (MDR1 (P-gp)): 254
Compound: C[C@H]1O[C@@H](O[C@H]2[C@@H](O)C[C@H](O[C@H]3[C@@H](O)C[C@H](O[C@H]4CC[C@@]5(C)[C@H](CC[C@@H]6[C@@H]5C[C@@H](O)[C@]5(C)[C@@H](C7=CC(=O)OC7)CC[C@]65O)C4)O[C@@H]3C)O[C@@H]2C)C[C@H](O)[C@@H]1O [Digoxin]

Papp (MDR1 (P-gp)): 12.8 ×10⁻⁶ cm/s
Compound: CC(C)NCC(O)COc1cccc2ccccc12 (stereo not drawn) [Propranolol]

AUC0-last Ratio, brain/plasma (B/P) ratio ([1]; brain AUC0-last / plasma AUC0-last, 10 mg/kg): 0.432 | Brain AUC0-last ([1]; brain, from mean concentrations): 4085 ng·h/g | AUC(0-t) ([1]; plasma, from mean concentrations, read-out: Plasma AUC0-last): 9450 ng·h/mL | concentration at 2 h [1, 2]: 216 ng/g | concentration at 2 h [1, 3]: 326 ng/g | concentration at 2 h [1, 4]: 302 ng/g | concentration at 2 h [1, 5]: 282 ng/g | concentration at 4 h [1, 2]: 452 ng/g | concentration at 4 h [1, 3]: 370 ng/g | concentration at 4 h [1, 4]: 469 ng/g | concentration at 4 h [1, 5]: 430 ng/g | concentration at 8 h [1, 2]: 421 ng/g | concentration at 8 h [1, 3]: 277 ng/g | concentration at 8 h [1, 4]: 341 ng/g | concentration at 8 h [1, 5]: 347 ng/g | concentration at 24 h [1, 2]: 6.51 ng/g | concentration at 24 h [1, 3]: 14.8 ng/g | concentration at 24 h [1, 4]: 10.6 ng/g | concentration at 24 h [1, 5]: 10.6 ng/g | Kp ([1]; brain, po, 10 mg/kg, brain AUC0-last / plasma AUC0-last, read-out: AUC0-last Ratio, brain/plasma (B/P) ratio): 0.43 | concentration at 2 h [1, 6]: 633 ng/mL | concentration at 2 h [1, 7]: 1060 ng/mL | concentration at 2 h [1, 8]: 821 ng/mL | concentration at 2 h [1, 9]: 836 ng/mL | concentration at 4 h [1, 6]: 700 ng/mL | concentration at 4 h [1, 7]: 744 ng/mL | concentration at 4 h [1, 8]: 963 ng/mL | concentration at 4 h [1, 9]: 802 ng/mL | concentration at 8 h [1, 6]: 1020 ng/mL | concentration at 8 h [1, 7]: 707 ng/mL | concentration at 8 h [1, 8]: 780 ng/mL | concentration at 8 h [1, 9]: 837 ng/mL | concentration at 24 h [1, 6]: 11.5 ng/mL | concentration at 24 h [1, 7]: 46.7 ng/mL | concentration at 24 h [1, 8]: 16.6 ng/mL | concentration at 24 h [1, 9]: 24.9 ng/mL
Compound: CCN1CCN(Cc2ccc(Nc3ncc(F)c(-c4cc(F)c5nc(C)n(C(C)C)c5c4)n3)nc2)CC1 [abemaciclib, reference compound]
P-gp substrate (p-glycoprotein (P-gp)): p-glycoprotein (P-gp) substrates

Compound: CC(=O)c1c(C)c2cnc(Nc3ccc(N4CCNCC4)cn3)nc2n(C2CCCC2)c1=O [palbociclib]
P-gp substrate (p-glycoprotein (P-gp)): p-glycoprotein (P-gp) substrates
